Patent publication US20260022142A1, “MACROCYCLIC IMMUNOMODULATORS” (Bristol-Myers Squibb Company, priority 2022, published 2026)
Bridge positions count the residues as written; N and C are the ends. Square brackets hold non-standard residues; d marks the D form. Peptide text beside a SMILES is read from it. * marks the point of attachment. Phe(3-CF3) = N[C@@H](Cc1cccc(C(F)(F)F)c1)C(=O)O; Ala(morpholin-4-yl) = N[C@@H](CN1CCOCC1)C(=O)O; Phe(4-COOH) = N[C@@H](Cc1ccc(C(=O)O)cc1)C(=O)O; Bip = N[C@@H](Cc1ccc(-c2ccccc2)cc1)C(=O)O; NH(CH2)14COOH = O=C(O)CCCCCCCCCCCCCCN*; Phe(3-Me) = Cc1cccc(C[C@H](N)C(=O)O)c1; NH(CH2)12COOH = O=C(O)CCCCCCCCCCCCN*; Val(3-OH) = CC(C)(O)[C@H](N)C(=O)O; Cha = N[C@@H](CC1CCCCC1)C(=O)O; PEG4 = NCCOCCOCCOCCOCCC(=O)O; Carboxymethyl = O=C(O)C*; Orn = NCCC[C@H](N)C(=O)O; Dab = NCC[C@H](N)C(=O)O; Nva = CCC[C@H](N)C(=O)O; AEEA = NCCOCCOCC(=O)O

Biological target: T1, PD-1/PD-L1 interaction (PE-labeled human PD-L1-Ig binding to Jurkat cell line over-expressing human PD-1) (Homo sapiens, UniProt Q15116)
T1 construct: expressed in transfected cells; host or cells: Jurkat
T1 sequence (Q15116 25-288): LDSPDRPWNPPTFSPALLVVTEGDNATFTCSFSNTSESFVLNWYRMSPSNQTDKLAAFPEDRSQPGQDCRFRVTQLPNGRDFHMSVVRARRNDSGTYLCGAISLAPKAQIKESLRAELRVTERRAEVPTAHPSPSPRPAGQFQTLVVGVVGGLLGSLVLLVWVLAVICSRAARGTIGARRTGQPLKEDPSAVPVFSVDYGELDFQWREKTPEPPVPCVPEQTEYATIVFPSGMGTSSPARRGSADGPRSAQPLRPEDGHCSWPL
Assay: Jurkat-PD-1 Cell Binding High-Content Screening Assay (CBA)
Assay type: cell-based
Details: Jurkat cell line over-expressing human PD-1; PE-labeled PD-L1-Ig 20 nM final; read-out: Jurkat hPD1-PDL1 IC50
In short: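 Binding of fluorescent PD-L1-Ig (phycoerythrin on Ig tag, 20 nM final, 1 h) measured by high-content imaging of fixed, Hoechst-counterstained Jurkat-hPD-1 cells. Compound added 2 h at 37° C beforehand, in DMEM with 10% fetal calf serum.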

Structure (SMILES)	IC50
Cc1cccc(C[C@@H]2NC(=O)[C@H](CC(=O)O)NC(=O)[C@H](Cc3ccc(OCC(=O)O)cc3)NC(=O)[C@H](CN3CCOCC3)NC(=O)CSC[C@@H](C(=O)N[C@@H](CCN)C(=O)NCCOCCOCC(=O)NCCOCCOCC(=O)NCCCCCCCCCCCCC(=O)O)NC(=O)[C@H](CC(=O)O)NC(=O)[C@H](C(C)(C)O)NC(=O)[C@H](CC3CCCCC3)NC(=O)[C@H](CCN)NC(=O)[C@@H](CC(C)C)NC(=O)[C@H](CCCN)NC(=O)[C@H](Cc3ccc(C(=O)O)cc3)NC(=O)[C@H](Cc3ccc(-c4ccccc4)cc3)NC(=O)[C@H](Cc3ccc(C(=O)O)cc3)NC2=O)c1 [Compound 2899] ({CH2CO}-[Ala(morpholin-4-yl)]Y(Carboxymethyl)D[Phe(3-Me)][Phe(4-COOH)][Bip][Phe(4-COOH)][Orn][dL][Dab][Cha][Val(3-OH)]DC[Dab][AEEA][AEEA]-{NH(CH2)12COOH}; thioether N-14)	5.4 nM
Cc1cccc(C[C@@H]2NC(=O)[C@H](CC(=O)O)NC(=O)[C@H](Cc3ccc(C(=O)O)cc3)NC(=O)[C@H](CN3CCOCC3)NC(=O)CSC[C@@H](C(=O)N[C@@H](CCN)C(=O)NCCOCCOCC(=O)NCCOCCOCC(=O)NCCCCCCCCCCCCC(=O)O)NC(=O)[C@H](CO)NC(=O)[C@H](C(C)(C)O)NC(=O)[C@H](CC3CCCCC3)NC(=O)[C@H](CCN)NC(=O)[C@@H](CC(C)C)NC(=O)[C@H](CCCN)NC(=O)[C@H](Cc3ccc(C(=O)O)cc3)NC(=O)[C@H](Cc3ccc(-c4ccccc4)cc3)NC(=O)[C@H](Cc3ccc(C(=O)O)cc3)NC2=O)c1 [Compound 2900] ({CH2CO}-[Ala(morpholin-4-yl)][Phe(4-COOH)]D[Phe(3-Me)][Phe(4-COOH)][Bip][Phe(4-COOH)][Orn][dL][Dab][Cha][Val(3-OH)]SC[Dab][AEEA][AEEA]-{NH(CH2)12COOH}; thioether N-14)	6.2 nM
CCC[C@@H]1NC(=O)CSC[C@@H](C(=O)N[C@@H](CCN)C(=O)NCCOCCOCCOCCOCCC(=O)NCCCCCCCCCCCCC(=O)O)NC(=O)[C@H](CO)NC(=O)[C@H](C(C)(C)O)NC(=O)[C@H](CC2CCCCC2)NC(=O)[C@H](CCN)NC(=O)[C@@H](CC(C)C)NC(=O)[C@H](CCCN)NC(=O)[C@H](Cc2ccc(OCC(=O)O)cc2)NC(=O)[C@H](Cc2ccc(-c3ccccc3)cc2)NC(=O)[C@H](Cc2ccc(OCC(=O)O)cc2)NC(=O)[C@H](Cc2cccc(C(F)(F)F)c2)NC(=O)[C@H](CC(=O)O)NC(=O)[C@H](Cc2ccc(C(=O)O)cc2)NC1=O [Compound 2901] ({CH2CO}-[Nva][Phe(4-COOH)]D[Phe(3-CF3)]Y(Carboxymethyl)[Bip]Y(Carboxymethyl)[Orn][dL][Dab][Cha][Val(3-OH)]SC[Dab][PEG4]-{NH(CH2)12COOH}; thioether N-14)	24.1 nM
CCC[C@@H]1NC(=O)CSC[C@@H](C(=O)N[C@@H](CCN)C(=O)NCCOCCOCCOCCOCCC(=O)NCCCCCCCCCCCCCCC(=O)O)NC(=O)[C@H](CO)NC(=O)[C@H](C(C)(C)O)NC(=O)[C@H](CC2CCCCC2)NC(=O)[C@H](CCN)NC(=O)[C@@H](CC(C)C)NC(=O)[C@H](CCCN)NC(=O)[C@H](Cc2ccc(OCC(=O)O)cc2)NC(=O)[C@H](Cc2ccc(-c3ccccc3)cc2)NC(=O)[C@H](Cc2ccc(OCC(=O)O)cc2)NC(=O)[C@H](Cc2cccc(C(F)(F)F)c2)NC(=O)[C@H](CC(=O)O)NC(=O)[C@H](Cc2ccc(C(=O)O)cc2)NC1=O [Compound 2902] ({CH2CO}-[Nva][Phe(4-COOH)]D[Phe(3-CF3)]Y(Carboxymethyl)[Bip]Y(Carboxymethyl)[Orn][dL][Dab][Cha][Val(3-OH)]SC[Dab][PEG4]-{NH(CH2)14COOH}; thioether N-14)	282 nM
